Laboratory results: PubChem BioAssay (NCI)
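How tested: cells in 96-well plates exposed to compound for 48 hours at five concentrations. GI50: concentration for 50% inhibition of growth. TGI is the concentration that stops growth completely.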

Columns and labels:
Experiment in all cases: growth of human tumour cells (NCI), 48 h
[1] = tested on: NCI/ADR-RES ovarian
[2] = tested on: SR leukemia
[3] = tested on: UACC-257 melanoma
[4] = tested on: NCI-H460 lung
[5] = tested on: ACHN renal
[6] = tested on: MCF7 breast
[7] = tested on: EKVX NSCLC
[8] = tested on: HCC-2998 colon
[9] = tested on: COLO 205 colon
[10] = tested on: HCT-15 colon
[11] = tested on: M14 melanoma
[12] = tested on: SK-MEL-28 melanoma
[13] = tested on: OVCAR-5 ovarian
[14] = tested on: HOP-62 NSCLC
[15] = tested on: DU-145 prostate
[16] = tested on: PC-3 prostate
[17] = tested on: HOP-92 NSCLC
[18] = tested on: IGROV1 ovarian
[19] = tested on: SF-295 CNS
[20] = tested on: 786-0 renal
[21] = tested on: MDA-MB-231 breast
[22] = tested on: T-47D breast
[23] = tested on: UACC-62 melanoma
[24] = tested on: HL-60(TB) leukemia
[25] = tested on: SNB-75 CNS
[26] = tested on: KM12 colon
[27] = tested on: OVCAR-8 ovarian
[28] = tested on: A549 NSCLC
[29] = tested on: TK-10 renal
[30] = tested on: OVCAR-3 ovarian
[31] = tested on: HS 578T breast
[32] = tested on: SK-MEL-2 melanoma
[33] = tested on: SW-620 colon
[34] = tested on: U251 CNS
[35] = tested on: OVCAR-4 ovarian
[36] = tested on: SF-268 CNS
[37] = tested on: RXF 393 renal
[38] = tested on: SK-OV-3 ovarian
[39] = tested on: MALME-3M melanoma
[40] = tested on: SK-MEL-5 melanoma
[41] = tested on: UO-31 renal
[42] = tested on: NCI-H226 lung
[43] = tested on: NCI-H522 lung
[44] = tested on: BT-549 breast
[45] = tested on: HT29 colon
[46] = tested on: K-562 leukemia
[47] = tested on: A498 renal
[48] = tested on: LOX IMVI melanoma
[49] = tested on: SNB-19 CNS
[50] = tested on: MOLT-4 leukemia
[51] = tested on: SN12C renal
[52] = tested on: SF-539 CNS
[53] = tested on: MDA-MB-435
[54] = tested on: CAKI-1 renal
[55] = tested on: HCT-116 colon

Compound: Cc1cc2nc3c4cc(Cl)ccc4n(CC(=O)NCCN(C)C)c3nc2cc1C
- GI50 [1]: 5.64 µM
- TGI [1]: 18.5 µM
- GI50 [2]: 2.42 µM
- TGI [2]: 6.64 µM
- GI50 [3]: 1.87 µM
- TGI [3]: 3.97 µM
- GI50 [4]: 1.79 µM
- TGI [4]: 3.62 µM
- GI50 [5]: 1.5 µM
- TGI [5]: 2.82 µM
- GI50 [6]: 1.48 µM
- TGI [6]: 3.15 µM
- GI50 [7]: 10.6 µM
- TGI [7]: 23.3 µM
- GI50 [8]: 11.7 µM
- TGI [8]: 23.9 µM
- GI50 [9]: 75.6 µM
- TGI [9]: > 100 µM
- GI50 [10]: 1.86 µM
- TGI [10]: 4.01 µM
- GI50 [11]: 1.64 µM
- TGI [11]: 3.11 µM
- GI50 [12]: 1.74 µM
- TGI [12]: 3.15 µM
- GI50 [13]: 2.04 µM
- TGI [13]: 4.68 µM
- GI50 [14]: 11.5 µM
- TGI [14]: 26.4 µM
- GI50 [15]: 13.7 µM
- TGI [15]: 26.6 µM
- GI50 [16]: 11.1 µM
- TGI [16]: 71.7 µM
- GI50 [17]: 2.2 µM
- TGI [17]: 22.8 µM
- GI50 [18]: 12.7 µM
- TGI [18]: 26.5 µM
- GI50 [19]: 16.4 µM
- TGI [19]: 29.9 µM
- GI50 [20]: 1.57 µM
- TGI [20]: 3.1 µM
- GI50 [21]: 2.25 µM
- TGI [21]: 6.58 µM
- GI50 [22]: > 100 µM
- TGI [22]: > 100 µM
- GI50 [23]: 2.14 µM
- TGI [23]: 5.26 µM
- GI50 [24]: 1.91 µM
- TGI [24]: 4.57 µM
- GI50 [25]: 13.2 µM
- TGI [25]: 26.5 µM
- GI50 [26]: > 100 µM
- TGI [26]: > 100 µM
- GI50 [27]: 1.91 µM
- TGI [27]: 3.87 µM
- GI50 [28]: 2.02 µM
- TGI [28]: 5.02 µM
- GI50 [29]: 19.7 µM
- TGI [29]: 33.9 µM
- GI50 [30]: 14.6 µM
- TGI [30]: 27.8 µM
- GI50 [31]: 13.5 µM
- TGI [31]: 35.5 µM
- GI50 [32]: 16 µM
- TGI [32]: 29.8 µM
- GI50 [33]: 1.57 µM
- TGI [33]: 3.21 µM
- GI50 [34]: 1.66 µM
- TGI [34]: 3.1 µM
- GI50 [35]: 15.9 µM
- TGI [35]: 39.2 µM
- GI50 [36]: 13.9 µM
- TGI [36]: 30.5 µM
- GI50 [37]: 1.67 µM
- TGI [37]: 3.42 µM
- GI50 [38]: 14.3 µM
- TGI [38]: 29.1 µM
- GI50 [39]: 1.69 µM
- TGI [39]: 3.2 µM
- GI50 [40]: 1.77 µM
- TGI [40]: 3.37 µM
- GI50 [41]: 1.02 µM
- TGI [41]: 2.22 µM
- GI50 [42]: 9.43 µM
- TGI [42]: 26.1 µM
- GI50 [43]: 12.7 µM
- TGI [43]: 25.9 µM
- GI50 [44]: 13.6 µM
- TGI [44]: 26.8 µM
- GI50 [45]: 1.67 µM
- TGI [45]: 3.18 µM
- GI50 [46]: 2.28 µM
- TGI [46]: 7.36 µM
- GI50 [47]: 18 µM
- TGI [47]: 31.8 µM
- GI50 [48]: 1.19 µM
- TGI [48]: 2.49 µM
- GI50 [49]: 16.1 µM
- TGI [49]: 31.2 µM
- GI50 [50]: 2.2 µM
- TGI [50]: 6.18 µM
- GI50 [51]: 15.2 µM
- TGI [51]: 29.4 µM
- GI50 [52]: 1.74 µM
- TGI [52]: 3.21 µM
- GI50 [53]: 1.9 µM
- TGI [53]: 3.77 µM
- GI50 [54]: 3.46 µM
- TGI [54]: 18.1 µM
- GI50 [55]: 1.73 µM
- TGI [55]: 3.29 µM
